One test has as its target Cytochrome P450 3A4 (Homo sapiens, UniProt P08684).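 Further: CYP3A4 tested as one member of a cytochrome P450 panel screen.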
A short description of test [1]: Trypanosoma cruzi growth suppression in host cells – NIH3T3 host cells, beta-gal luminescence, confirmation (AID 2044).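 Further: intracellular parasites grown in NIH/3T3 mouse fibroblasts as host cells; luminescent beta-galactosidase reporter signal from transgenic T. cruzi replicating inside host cells; inhibitors lower the luminescence signal.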 The class given is functional, cell-based.
The nature of test [2]: NIH3T3 cell viability loss – ATP luminescence, mouse fibroblasts, counter-screen, dose response (AID 2010).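 Further: cells exposed to compound for about 90 hours before reading.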 Type of test: functional, cell-based.
Test [3] addresses T1, Heat shock factor protein 1 (Mus musculus, UniProt P38532).
T1 sequence (P38532 whole entry): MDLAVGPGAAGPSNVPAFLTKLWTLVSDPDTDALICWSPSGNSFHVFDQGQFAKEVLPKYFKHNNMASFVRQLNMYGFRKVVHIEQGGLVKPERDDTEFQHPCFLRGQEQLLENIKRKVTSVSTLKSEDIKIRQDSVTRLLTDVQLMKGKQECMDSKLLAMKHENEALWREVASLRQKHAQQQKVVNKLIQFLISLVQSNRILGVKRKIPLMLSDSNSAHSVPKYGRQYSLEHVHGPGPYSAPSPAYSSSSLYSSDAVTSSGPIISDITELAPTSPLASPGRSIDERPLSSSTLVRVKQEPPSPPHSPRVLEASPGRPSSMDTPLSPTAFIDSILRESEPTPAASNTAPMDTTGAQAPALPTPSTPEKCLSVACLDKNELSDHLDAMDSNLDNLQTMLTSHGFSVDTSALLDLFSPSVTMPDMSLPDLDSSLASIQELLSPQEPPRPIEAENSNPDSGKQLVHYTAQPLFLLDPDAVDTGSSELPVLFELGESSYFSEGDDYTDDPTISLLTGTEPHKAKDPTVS
Briefly: decrease of HSF1-responsive luciferase luminescence – cell-based, NIH3T3, dose retest, confirmation (AID 2382).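 Further: NIH3T3 fibroblasts with HSF1-driven luciferase reporter stressed by proteasome inhibitor MG132; luminescence from HSF1-driven luciferase expression after 8 hours of MG132 stress.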 The class given is functional.

For the next test, the system named is Streptococcus. Briefly: GAS UMAA2166 growth inhibition – luminescence, BacTiterGlo, counter-screen for streptokinase expression inhibitor project, dose response (AID 1915).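 Further: potency for reduction of bacterial viability or growth.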 Type of test: functional, organism-based. (Counterscreens check selectivity or assay interference.)
Test [4] deals with Streptococcus sp. 'group A'. Briefly: Streptococcus pyogenes SK(-)GAS viability under kanamycin – luminescence, BacTiterGlo, confirmation, counter-screen for streptokinase expression inhibitor project, dose response (AID 1900). Type of test: functional, organism-based.
The target of another test is T2, Streptokinase A (Streptococcus pyogenes serotype M1, UniProt P10520).
T2 sequence (P10520 whole entry): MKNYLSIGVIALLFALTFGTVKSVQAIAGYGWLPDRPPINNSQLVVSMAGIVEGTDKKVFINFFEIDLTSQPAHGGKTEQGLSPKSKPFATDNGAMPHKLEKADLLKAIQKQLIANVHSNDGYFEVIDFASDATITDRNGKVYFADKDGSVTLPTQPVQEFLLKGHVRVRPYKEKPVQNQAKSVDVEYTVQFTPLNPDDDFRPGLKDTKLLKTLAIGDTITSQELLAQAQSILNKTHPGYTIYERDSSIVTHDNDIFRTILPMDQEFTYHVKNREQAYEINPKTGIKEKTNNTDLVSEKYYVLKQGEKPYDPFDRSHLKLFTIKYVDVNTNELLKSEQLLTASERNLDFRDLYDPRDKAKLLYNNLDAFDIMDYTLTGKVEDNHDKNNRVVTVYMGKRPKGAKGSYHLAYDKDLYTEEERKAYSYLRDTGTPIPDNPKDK
In words: viability-normalized secreted streptokinase activity reduction – plasminogen activation absorbance, OD405, dose response (AID 1914).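 Further: secreted streptokinase activity via plasminogen activation per viability signal from cell pellet.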 Type of test: functional, Streptococcus pyogenes M1 GAS.

In a further test the test system is INS1. Briefly: INS-1E survival protection against cytokine death – cell-based, luminescence, retest, dose response (AID 449756).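 Further: cell death triggered by IL-1 beta plus TNF-alpha plus IFN-gamma mixture; protective hits raise ATP signal compared with cytokine alone wells.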 The class given is functional. The following applies: Rattus norvegicus.

This passage reports AC50 and EC50 results from ChEMBL document CHEMBL1201862, “PubChem BioAssay data set” (2004).

Several values for one entry are separate records, joined by “and”; a condition that tells them apart may be missing. Equal entries are not always repeated. Activity calls are given as the source filed them. For most assays here, no stated cut-off is given here; in the data, actives have a measured EC50 and inactives only a lower limit. Bounds are passed on as bounds.

Sequence of Cytochrome P450 3A4 (P08684 whole entry): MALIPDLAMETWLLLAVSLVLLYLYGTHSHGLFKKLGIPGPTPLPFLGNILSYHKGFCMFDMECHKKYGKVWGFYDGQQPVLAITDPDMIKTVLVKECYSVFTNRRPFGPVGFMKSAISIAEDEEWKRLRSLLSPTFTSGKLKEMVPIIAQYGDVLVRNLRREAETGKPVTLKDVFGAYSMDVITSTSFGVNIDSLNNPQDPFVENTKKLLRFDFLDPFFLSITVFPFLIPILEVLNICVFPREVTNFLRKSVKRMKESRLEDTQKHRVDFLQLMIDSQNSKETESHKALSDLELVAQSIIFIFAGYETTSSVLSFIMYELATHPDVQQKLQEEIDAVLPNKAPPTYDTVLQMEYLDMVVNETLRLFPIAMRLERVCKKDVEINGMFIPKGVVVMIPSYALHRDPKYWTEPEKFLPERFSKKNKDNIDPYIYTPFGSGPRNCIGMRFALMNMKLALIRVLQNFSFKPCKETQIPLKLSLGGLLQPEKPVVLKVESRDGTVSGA

As usually defined, the AC50 is the midpoint of the concentration-response curve, whichever way the signal moves. As to `Cc1ccc([C@@H](O)c2cnc(C)n2Cc2ccccc2)cc1`, the AC50 at Cytochrome P450 3A4 was 5.01 µM (inconclusive).
Same read-out and setting: under `C[C@@H](c1ccccc1)N1C(=O)[C@H]2[C@H]3[C@H](O)[C@H](O)C/C(=N/OCc4ccccc4)[C@H]3CC[C@@H]2C1=O` stands 3.16 µM (inconclusive).
For orientation: EC50 means the concentration needed to bring the measured effect to its halfway point. As to `COc1ccc(OC)c(C2/C(=C(\O)c3ccccc3)C(C)=Nc3nc4ccccc4n32)c1` (configuration not stated), the EC50 in test [1] is 1.51 µM (active); in test [2] it was > 60 µM (not active).
As for `Cn1c(=O)c2nc(CCCc3ccc([N+](=O)[O-])cc3)[nH]c2n(C)c1=O`, on Cytochrome P450 3A4, the AC50 was 3.98 µM (inconclusive).
As for `Cc1c(-c2ccccc2)[n+]([O-])c2c([n+]1[O-])CCC2`, in test [3], the EC50 was > 195 µM (not active).
For `NC(=O)c1ccsc1NC(=O)C1CCCCC1`, in test [3], the concentration for a half-maximal effect (EC50) was > 195 µM (not active).
With `Cc1ccc(S(=O)(=O)N(C)c2ccccc2C(=O)NC2CCCC2)cc1`, in test [3], the concentration for a half-maximal effect (EC50) is > 195 µM (not active).
`COc1ccc(N2C(=O)CC(c3ccc(OC(C)C)cc3)C2=O)cc1` (configuration not stated): in test [3], the concentration giving a half-maximal response (EC50) was > 195 µM (not active).
On the same count and under the same terms, the result for `NC(=O)COC(=O)c1ccccc1Oc1ccccc1` reads > 195 µM (not active).
With `Cc1cc(C)cc(N(C(=O)Cc2cccs2)C(C(=O)NC2CCCCC2)c2ccccn2)c1` (configuration not stated), the half-maximal activity concentration (AC50) at Cytochrome P450 3A4 was 0.891 µM (inconclusive).
As to `CC(Sc1nnnn1C)C(=O)Nc1ccc(Oc2ccccc2)cc1` (configuration not stated), in test [3], the EC50 is recorded as > 195 µM (not active).
As to `CCCCn1c(SCC(=O)NCc2ccco2)nc2c(sc3ccccc32)c1=O`, in test [3], the EC50 is > 195 µM (not active).
The same measure, in the same setting: under `CCOC(=O)CSc1ccc(C(=O)NCCCN2CCOCC2)cc1[N+](=O)[O-]` stands > 195 µM (not active); under `O=C(c1ccco1)N(Cc1cc2ccccc2nc1O)C1CCCCC1`, > 195 µM (not active).
On to `CCN(CC)P(=O)(Nc1ccc(C)cc1Br)c1ccc(N(C)C)cc1NC(=O)c1ccco1` (configuration not stated), for which the EC50 was 2.27 µM (active) in test [1] and > 60 µM (inconclusive) in test [2].
With `Cc1ccc(C)c(CN2CCCN(Cc3cc(C)ccc3C)S2(=O)=O)c1`, the figures for the EC50 (in the test on Streptococcus; in test [4]; at Streptokinase A) were > 150 µM (not active), 19.8 µM (active) and 19.7 µM (active), respectively.
Take `O=C(c1ccc(Cl)cc1Cl)C1(n2cncn2)Oc2ccccc2C1O` (configuration not stated): the EC50 in test [1] was 0.535 µM (active); in test [2], 18 µM (active).
The like results for `CCOP(=O)(OCC)c1nc(-c2cccc3ccccc23)oc1NCc1ccc(OC)cc1` were, in that order, 2.45 µM (active) and > 60 µM (not active).
Take `Cc1cc(C)n(C(=O)CNC(=O)Cc2ccccc2)n1`: in test [3], the EC50 is on record as > 195 µM (not active).
As to `COc1ccc(S(=O)(=O)NCC(c2cccnc2)N2CCN(C)CC2)cc1OC` (configuration not stated), in test [3], the concentration giving a half-maximal response (EC50) is > 195 µM (not active).
Same read-out and setting: under `O=C(CCc1nnc2ccc(N3CCC4(CC3)OCCO4)nn12)NCc1ccc(F)cc1` stands > 195 µM (not active); under `O=C(CN1CC=C(c2ccccc2)CC1)NC(=O)NCc1ccccc1`, > 195 µM (not active); under `NC=C1C(=O)N(c2ccccc2)C(=O)N(c2ccccc2)C1=O`, > 195 µM (not active).
Take `CO[C@H]1COC(=O)C/C=C\[C@@H](C)COC(=O)[C@@H](CCSC)NC(=O)C/C=C\[C@@H]1C`: at Cytochrome P450 3A4, the half-maximal activity concentration (AC50) was 3.98 µM (inconclusive) and 5.01 µM (inconclusive).
For the compound `CCOC(=O)N1CCN(CC(O)COCCC23CC4CC(CC(C4)C2)C3)CC1` (configuration not stated), the EC50 was 1.16 µM (active) in test [1] and > 30 µM (not active) in test [2].
The matching figures for `CCCCc1ccc(NC(S)=NCc2cccs2)cc1`: 2.6 µM (active) and > 60 µM (not active).
As to `CCc1nc(SCC(=O)NCCc2ccc(OC)c(OC)c2)c2c(=O)n(C)c(=O)n(C)c2n1`, the EC50 in test [3] is reported as > 195 µM (not active).
In the case of `COCC(=O)N1CCC[C@@]2(CCN(Cc3ccccc3)C2)C1`, the AC50 at Cytochrome P450 3A4 was 25.1 µM (inconclusive).
Turning to `CCC(C)C(NC(=O)C1CCC(=O)N1C(=O)OCc1ccccc1)C(=O)NC(C(=O)N1CCCC1C(N)=O)C(C)CC` (configuration not stated), in test [3], the EC50 is on record as > 195 µM (not active).
Take `C=CCOc1ccccc1CN1CCCC(CCC(=O)N(C)CCc2ccccn2)C1` (configuration not stated): the EC50 in test [1] is 0.412 µM (active); in test [2] it was > 60 µM (not active).
Take `Cc1ccc(NC(=O)CCN2CCCCC2)cc1`: the EC50 in test [3] was 4.53 µM (active).
Still for that read-out and setting: the result for `O=C(O)CC1SC(=O)N(Cc2ccccc2)C1=O` (configuration not stated) reads > 195 µM (not active).
In the case of `CCOc1cc(C(=O)NCc2ccccc2)ccc1OCC(=O)N1CCOCC1`, the EC50 in test [3] was > 195 µM (not active).
Take `O=c1[nH]c(NCCCO)nc2c1C1(CCCC1)Cc1ccccc1-2`: in the test on INS1, the AC50 was > 260 µM (inactive).
In the case of `C=CCn1c(SCN2C(=O)c3ccccc3C2=O)nc2ccc(Cl)cc2c1=O`, in the test with INS1, the half-maximal activity concentration (AC50) was 7.25 µM (active).
Turning to `Oc1nc2ccccc2n2cnnc12`, the EC50 in test [3] was > 195 µM (not active).
Take `CC(C)CN(C(=O)COC(=O)c1ccc([N+](=O)[O-])s1)c1c(N)n(Cc2ccccc2)c(=O)[nH]c1=O`: the concentration for a half-maximal effect (EC50) was 1.06 µM (active) in test [1] and 4.8 µM (active) in test [2].
For `O=C(c1cnccn1)N1CCC[C@@]2(CCN(c3ncccn3)C2)C1`, the AC50 on Cytochrome P450 3A4 is 15.8 µM (inconclusive).
Take `Cc1c(C(=O)NCc2ccc3c(c2)OCO3)sc2nc(-c3ccccc3)cn12`: the EC50 in test [3] is > 195 µM (not active).
In the case of `COc1ccccc1C(=O)NCCC(=O)NNC(=O)Cn1ccc(C(F)(F)F)n1`, the concentration giving a half-maximal response (EC50) in test [3] is > 195 µM (not active).
Consider `CSc1nc(SCC(=O)NC(c2ccccc2)c2ccccc2)c2c3c(sc2n1)CN(C)CC3`, for which the concentration for a half-maximal effect (EC50) in test [1] was 0.237 µM (active); in test [2], > 60 µM (not active).
`COc1ccc(C(=O)N(C)c2ccccc2C(=O)NCCc2ccccc2)cc1`: the AC50 in the test on INS1 is 4.32 µM (active).
`CC1CC(c2ccccc2)n2nc(NC(=O)c3cccs3)nc2N1` (configuration not stated): the half-maximal effective concentration (EC50) in test [3] is reported as > 195 µM (not active).
Take `COc1ccc2[nH]cc(CCNc3ncnc4ccc(-c5ccccc5OC)cc34)c2c1`: the half-maximal activity concentration (AC50) at Cytochrome P450 3A4 was 0.794 µM (inconclusive).
Same read-out and setting: the result for `Cc1ccc(-n2c(O)cnc2Nc2nc(C)cc(C)n2)cc1` reads 31.6 µM (inconclusive).
With `CC1(C(=O)OCC(=O)Nc2nc(-c3ccc(F)c(F)c3)cs2)CC1(Cl)Cl` (configuration not stated), the concentration giving a half-maximal response (EC50) with Streptococcus is 11.8 µM (active); in test [4], 8.61 µM (active); at Streptokinase A, 7.2 µM (active).
As to `CCCC(=O)NC(N=C(S)Nc1ccc(N=Nc2ccccc2)cc1)C(Cl)(Cl)Cl` (configuration not stated), the AC50 in the test with INS1 is 5.34 µM (active).
The same measure, in the same setting: under `N=C(NOC(=O)c1cccc(Cn2cc(C(F)(F)F)ccc2=O)c1)c1ccc(Cl)cc1` stands 12.4 µM (active).
Regarding `COc1ccccc1OCC(=O)Nc1c2c(nn1-c1ccc(F)cc1)CS(=O)(=O)C2`, the half-maximal effective concentration (EC50) (with Streptococcus; in test [4]; on Streptokinase A) was > 150 µM (not active) in each case.
Turning to `CCNC(=O)NC(=O)c1csc([N+](=O)[O-])c1`, the EC50 in test [1] was 0.415 µM (active); in test [2] it was > 30 µM (not active).
The like results for `CCN(CC)CCOCCOc1cc(C)c(Cl)c(C)c1` were, in that order, 0.408 µM (active) and 9.47 µM (active).
For `CN(C)c1ccc(-c2nc(N3CCNCC3)c3ccccc3n2)cc1`, the AC50 at Cytochrome P450 3A4 is 31.6 µM (inconclusive).
Turning to `C/C(=N/NC(=S)Nc1cccc(C)c1)c1cccc([N+](=O)[O-])c1`, the results for the concentration for a half-maximal effect (EC50) in test [1] and in test [2] were 1.63 µM (active) and > 60 µM (not active), respectively.
Take `c1ccc(/C(=N/Nc2nc3ccccc3s2)c2ccccn2)cc1`: the AC50 at Cytochrome P450 3A4 was 3.98 µM (inconclusive).
`Cc1cc(/C=N/N2CCN(C)CC2)c(C)n1-c1ccccc1F`: the EC50 is 1.81 µM (active) in test [1] and > 60 µM (not active) in test [2].
The like results for `COc1cc2c(-c3ccccc3)c(C)oc2cc1/C=N/NC(N)=S` were, in that order, 0.102 µM (active) and > 60 µM (not active).
For the compound `C/C(=N\OC(=O)NC(C)C)c1sc(-c2ccc(Cl)cc2)nc1C`, the AC50 on Cytochrome P450 3A4 was 31.6 µM (inconclusive).
